Results taken from patent publication US11013696B2, “Lipids and lipid compositions for the delivery of active agents” (Novartis AG, priority 2013, dated 2021).

Test system: Factor VII
Experiment: Mouse Factor VII dosing and plasma Factor VII activity assay (FVII siRNA LNP, IV)
Type: in vivo
Details: 0.03 mpk, XXX mice
Procedure: Female CD-1 mice were received from Harlan Labs and maintained on standard lab chow and water ad libitum. The animals weighed approximately 25 gr at time of dosing. Formulated Factor VII siRNA was administered as a single dose intravenously via the lateral tail vein. Approximately 48 hours after injection, the mice were euthanized by CO2 inhalation followed by exsanguination through the vena cava.
Plasma collected from injected mice was assayed for Factor VII enzyme activity using the Biophen FVII kit from Hyphen Biomedical (catalog number 221304). An assay standard curve was prepared using pooled plasma aliquots from the vehicle control animals. All samples were diluted to fall within the linear range of the standard curve and Factor VII activity relative to control plasma was reported.
Lipid nanoparticles comprising lipid compounds of formula (I) and the FVII siRNA duplex sequence listed above were tested in the Factor VII Activity Assay. The results of this assay are given in Table 34 below as a percent knock down of plasma Factor VII enzyme activity at a dose of 0.3 mg/kg and 0.03 mg/kg.

## CCCCC/C=C\C/C=C\CCCCCCCC(=O)OCC(COC(=O)CCCCCCC/C=C\C/C=C\CCCCC)OC(=O)CCC(CCCCCCCCCCCC)OC(=O)OCCCN(C)C (stereo not shown) [Example 80, (9Z,9′Z,12Z,12′Z)-2-((4-(((3-(dimethylamino)propoxy)carbonyl)oxy)hexadecanoyl)oxy)propane-1,3-diyl bis(octadeca-9,12-dienoate)]
  FVII knock-down following IV injection of encapsulated siRNA: 95%/0.03
